# Test results published in patent publication US20150218212A1, “FLUORINATED EPOXYKETONE-BASED TETRAPEPTIDE COMPOUNDS AND USES THEREOF AS PROTEASOME INHIBITORS” (FLUORINOV PHARMA INC., priority 2012, published 2015).
# Target: T1, chymotrypsin-like (CT-L) proteasome activity (Homo sapiens, UniProt P20618+P28074)
# T1 sequence (P28074 60-263): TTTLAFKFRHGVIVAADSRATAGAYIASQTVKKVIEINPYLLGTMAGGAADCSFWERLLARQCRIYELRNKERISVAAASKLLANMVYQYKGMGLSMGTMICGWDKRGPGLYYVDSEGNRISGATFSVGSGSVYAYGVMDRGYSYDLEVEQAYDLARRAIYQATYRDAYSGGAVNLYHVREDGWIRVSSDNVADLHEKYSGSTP
# T1 sequence (P20618 29-241): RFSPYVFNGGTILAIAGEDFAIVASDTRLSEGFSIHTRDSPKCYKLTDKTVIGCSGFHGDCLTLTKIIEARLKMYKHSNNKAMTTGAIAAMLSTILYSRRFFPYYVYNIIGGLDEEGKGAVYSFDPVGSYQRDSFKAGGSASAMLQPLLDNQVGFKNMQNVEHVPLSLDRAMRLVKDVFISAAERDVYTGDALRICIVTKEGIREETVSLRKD
# Assay: Proteasome enzymatic activity (tumor cell lysates), CT-L, KMS-11
# Format: biochemical
# Details: KMS-11, mean ± standard deviation
# Experimental: Human multiple myeloma cell lines 8226, H929, JJN3, KMH11, KMS11, KMS18, LP1, MM1S, OPM2 and U266 were grown in Iscove modified Dulbecco's medium (IMDM). Human leukemia cell lines K562, OCI-AML2 and U937 were cultured in RPMI-1640 medium. Primary peripheral blood mononuclear cells were isolated from multiple myeloma patients by Ficoll density gradient centrifugation and bone marrow aspirates were obtained from multiple myeloma patients at the Princess Margaret Cancer Centre of the University Health Network (UHN; Toronto, ON, Canada). Primary cells were cultured in IMDM. The collection and use of human tissue for this study was approved by the UHN institutional ethics review board. All cell culture media were obtained from the Ontario Cancer Institute Tissue Culture Media Facility (Toronto, ON, Canada) and were supplemented with 10% fetal calf serum, […] (Hyclone, Logan, Utah). All cells were grown in a humidified incubator at 37° C. with 5% CO2.
# Cells were harvested by centrifugation at 1,200 rpm at room temperature. Cell pellets were washed with PBS (phosphate buffered saline) and lysed with assay lysis buffer (50 mM HEPES (N-2-hydroxyethylpiperazine-N′-2-ethanesulfonic acid), pH 7.5; 150 mM NaCl; 1% Triton X-100; 2 mM ATP). Cell lysates were incubated on ice for 30 minutes, mixed by vortex every 5 minutes, and then centrifuged at 12,000 g for 10 minutes. The supernatant was transferred to a 96-well plate. For each assay, 10 μg of total protein were incubated for 1 hour at 37° C. with increasing concentrations (1 nM to 10 μM) of test compound diluted in assay buffer (50 mM tris-HCl (tris(hydroxymethyl)aminomethane-HCl), pH 7.5; 150 mM NaCl). DMSO alone was used as a control in every assay plate. After incubation, a specific fluorogenic proteasome substrate was added to each assay reaction at a final concentration of 40 μM in a total volume of 100 μL. N-Succinyl-Leu-Leu-Val-Tyr-7-amino-4-methylcoumarin (Suc-Leu-Leu-Val-Tyr-AMC) was used for measuring chymotrypsin-like (CT-L) activity, t-butoxycarbonyl-Leu-Arg-Arg-7-amino-4-methylcoumarin (Boc-Leu-Arg-Arg-AMC) for trypsin-like (T-L) activity, and benzyloxycarbonyl-L-leucyl-L-leucyl-L-glutamyl-7-amino-4-methylcoumarin (Z-Leu-Leu-Glu-AMC) for caspase-like (C-L) activity. The excitation wavelength was set at 360 nm and the fluorescence emission wavelength of AMC was detected at 460 nm. The fluorescence of free AMC released during the enzymatic reaction was measured with a SpectraMax M5 fluorescent spectrophotometric plate reader (Molecular Devices, Sunnyvale, Calif.). AMC release rate was measured at 37° C. in a kinetic mode, recording every 5 minutes for 30 minutes. Experiments were performed in triplicate and repeated at least twice.
# Table 8 summarizes the data of representative compounds of Formula I for cell viability and CT-L proteasome activity with OCI-AML-2 and KMS-11 cell lines.
row,Compound,IC50 [nM]
1,"CC(C)C[C@H](NC(=O)[C@H](COC(F)F)NC(=O)CN1CCOCC1)C(=O)N[C@@H](COC(F)F)C(=O)N[C@@H](CC(C)C)C(=O)[C@@]1(C)CO1 [Example 1, (2S)—N-[(1S)-1-(difluoromethoxymethyl)-2-[[(1S)-3-methyl-1-[(2R)-2-methyloxirane-2-carbonyl]butyl]amino]-2-oxo-ethyl]-2-[[(2S)-3-(difluoromethoxy)-2-[(2-morpholinoacetyl)amino]propanoyl]amino]-4-methyl-pentanamide]",40.4 ± 6.97
2,"CC(C)C[C@H](NC(=O)[C@H](COC(F)F)NC(=O)CN1CCOCC1)C(=O)N[C@@H](Cc1ccccc1)C(=O)N[C@@H](CC(C)C)C(=O)[C@@]1(C)CO1 [Example 2, (2S)-N-[(1S)-1-benzyl-2-[[(1S)-3-methyl-1-[(2R)-2-methyloxirane-2-carbonyl]butyl]-amino]-2-oxo-ethyl]-2-[[(2S)-3-(difluoromethoxy)-2-[(2-morpholinoacetyl)amino]propanoyl]amino]-4-methyl-pentanamide]",46.8 ± 1.58
3,"CC(C)C[C@H](NC(=O)[C@H](COC(F)F)NC(=O)CN1CCOCC1)C(=O)N[C@@H](Cc1ccccc1)C(=O)N[C@@H](Cc1ccccc1)C(=O)[C@@]1(C)CO1 [Example 3, (2S)-N-[(1S)-1-benzyl-2-[[(1S)-1-benzyl-2-[(2R)-2-methyloxiran-2-yl]-2-oxo-ethyl]amino]-2-oxo-ethyl]-2-[[(2S)-3-(difluoromethoxy)-2-[(2-morpholinoacetyl)-amino]propanoyl]amino]-4-methyl-pentan-amide]",38.2 ± 2.81
4,"CC(C)C[C@H](NC(=O)[C@H](COC(F)F)NC(=O)CN1CCOCC1)C(=O)N[C@@H](COC(F)F)C(=O)N[C@@H](Cc1ccccc1)C(=O)[C@@]1(C)CO1 [Example 4, (2S)-N-[(1S)-2-[[(1S)-1-benzyl-2-[(2R)-2-methyloxiran-2-yl]-2-oxo-ethyl]amino]-1-(difluoromethoxymethyl)-2-oxo-ethyl]-2-[[(2S)-3-(difluoromethoxy)-2-[(2-mor-pholinoacetyl)amino]propanoyl]amino]-4 methyl-pentanamide]",45.7 ± 8.26
5,"CC(C)C[C@H](NC(=O)[C@H](COC(F)F)NC(=O)[C@H](COC(F)F)NC(=O)[C@H](CCc1ccccc1)NC(=O)CN1CCOCC1)C(=O)[C@@]1(C)CO1 [Example 7, (2S)-N-[(1S)-1-(difluoromethoxymethyl)-2-[[(1S)-1-(difluoromethoxymethyl)-2-[[(1S)-3-methyl-1-[(2R)-2-methyloxirane-2-carbo-nyl]butyl]amino]-2-oxo-ethyl]amino]-2-oxo-ethyl]-2-[(2-morpholinoacetyl)amino]-4-phenyl-butanamide]",33.7 ± 5.6
6,"CC(C)C[C@H](NC(=O)[C@H](Cc1ccccc1)NC(=O)[C@H](COC(F)F)NC(=O)[C@H](COC(F)F)NC(=O)CN1CCOCC1)C(=O)[C@@]1(C)CO1 [Example 11, (2S)-2-[[(2S)-3-(difluoromethoxy)-2-[[(2S)-3-(difluoromethoxy)-2-[(2-morpholinoacetyl)-amino]propanoyl]amino]propanoyl]amino]-N-[(1S)-3-methyl-1-[(2R)-2-methyloxirane-2-carbonyl]butyl]-3-phenyl-propanamide]",50.7 ± 7.72
7,"CC(C)C[C@H](NC(=O)[C@H](COC(F)F)NC(=O)[C@H](COC(F)F)NC(=O)[C@H](COC(F)F)NC(=O)CN1CCOCC1)C(=O)[C@@]1(C)CO1 [Example 17, (2S)-3-(difluoromethoxy)-N-[(1S)-1-(difluoromethoxymethyl)-2-[[(1S)-1-(difluoro-methoxymethyl)-2-[[(1S)-3-methyl-1-[(2R)-2-methyloxirane-2-carbonyl]butyl]amino]-2-oxo-ethyl]amino]-2-oxo-ethyl]-2-[(2-mor-pholinoacetyl)amino]-propanamide]",77.8 ± 6.77
